Results as given in PubChem BioAssay (NCI).
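Following 48 hours of exposure in 96-well plates, responses at five concentrations were used to interpolate endpoints linearly. Here, GI50 denotes the concentration required for 50% inhibition of growth. TGI marks complete inhibition of growth.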

Key:
Assay in all cases: DTP human tumour cell line panel, 48 h
HS 578T breast = test system: HS 578T breast
NCI-H226 lung = test system: NCI-H226 lung
MDA-MB-435 = test system: MDA-MB-435
SNB-78 CNS = test system: SNB-78 CNS
U251 CNS = test system: U251 CNS
LXFL 529 NSCLC = test system: LXFL 529 NSCLC
HOP-18 NSCLC = test system: HOP-18 NSCLC
XF 498 CNS = test system: XF 498 CNS
M19-MEL melanoma = test system: M19-MEL melanoma
HL-60(TB) leukemia = test system: HL-60(TB) leukemia

| Structure (SMILES) | TGI (HS 578T breast) [µM] | TGI (NCI-H226 lung) [µM] | TGI (MDA-MB-435) [µM] | TGI (SNB-78 CNS) [µM] | TGI (U251 CNS) [µM] | TGI (LXFL 529 NSCLC) [µM] | TGI (HOP-18 NSCLC) [µM] | TGI (XF 498 CNS) [µM] | TGI (M19-MEL melanoma) [µM] | TGI (HL-60(TB) leukemia) [µM] | GI50 (NCI-H226 lung) [µM] | GI50 (SNB-78 CNS) [µM] | GI50 (U251 CNS) [µM] | GI50 (LXFL 529 NSCLC) [µM] | GI50 (HOP-18 NSCLC) [µM] | GI50 (XF 498 CNS) [µM] | GI50 (M19-MEL melanoma) [µM] | GI50 (HL-60(TB) leukemia) [µM] |
| --- | --- | --- | --- | --- | --- | --- | --- | --- | --- | --- | --- | --- | --- | --- | --- | --- | --- | --- |
| O=C1/C(=C/c2ccccc2)CN(C(=O)/C=C/c2ccccc2)C/C1=C\c1ccccc1 | > 100 | 60.6 | 3.74 | > 73 | 7.37 | 29.1 | 97.6 | 38 | > 22.9 | 16.4 | – | – | – | – | – | – | – | – |
| NNC(=S)N/N=C(\c1nc2ccc(Cl)cc2[nH]c1=O)C(O)c1cccc([N+](=O)[O-])c1 (centres undefined) | – | > 100 | – | > 100 | > 100 | > 100 | > 100 | > 100 | > 100 | > 94.3 | – | – | – | – | – | – | – | – |
| CC[C@@]1(O)C(=O)OCc2c1cc1n(c2=O)Cc2cc3c(N)c(OC)ccc3nc2-1 | – | > 100 | – | > 100 | 0.201 | > 25.6 | > 100 | 4.14 | 1.46 | 0.187 | 1.77 | 1.22 | < 0.01 | 0.953 | 0.14 | 0.389 | 0.159 | 0.0266 |
| C=CCN=C1NC(=O)C(CC(=O)Nc2ccc([N+](=O)[O-])cc2[N+](=O)[O-])S1 (centres undefined) | – | > 100 | – | > 100 | > 100 | > 100 | > 100 | > 100 | > 100 | > 100 | – | – | – | – | – | – | – | – |
| CC(=O)CC(=O)Nc1ccc(OS(N)(=O)=O)cc1 | – | > 100 | – | > 100 | > 100 | > 100 | > 100 | > 100 | > 100 | > 100 | – | – | – | – | – | – | – | – |
| COc1cc(Br)c(/C=N/N=C(\N)NO)cc1OC | – | 31.5 | – | > 100 | > 100 | > 100 | > 100 | 69.6 | 76.2 | 52.6 | – | – | – | – | – | – | – | – |
| Cc1ccccc1-c1cc(=O)c2cc(C)c(C)c(C(=O)O)c2o1 | – | > 100 | – | > 100 | > 100 | > 100 | > 100 | > 100 | > 100 | > 100 | – | – | – | – | – | – | – | – |
| CC(C)CC1CC2C(=O)N(c3ccccc3)C(=O)C2c2[nH]c3ccccc3c21 (centres undefined) | – | 66.1 | – | > 100 | > 65 | > 100 | 31.4 | 48.6 | > 100 | > 31.6 | – | – | – | – | – | – | – | – |
| CC12CC(Br)(Br)C(=O)C3C1CCCC32 | 45.2 | 27.2 | 8.78 | 44.8 | 25.9 | 6.83 | 22.6 | 21 | 22.8 | 9.33 | – | – | – | – | – | – | – | – |
